Where “and” joins values, the source holds several entries; their conditions need not be identical. Equal values may be shown once.
Experiments:
MAO-A = MAO-A (Homo sapiens, UniProt P21397); experiment: Inhibition of monoamine oxidase A activity, kynuramine substrate; format: biochemical; conditions: 10 μM
5-HT2A receptor [1] = molecular target: T1, 5-HT2A receptor (Homo sapiens, UniProt P28223); experiment: Prolonged; format: cell-based; conditions: 3 day exposure to 30 μM
GABAA receptor = conditions: cited from earlier work
dopamine receptors = conditions: 10 μM; cited from earlier work
h5-HT7 = h5-HT7 (Homo sapiens, UniProt P34969); experiment: Radioligand displacement by a fixed drug concentration, [3H]LSD; conditions: 10 μM efavirenz
Sequence of h5-HT7 (P34969 whole entry): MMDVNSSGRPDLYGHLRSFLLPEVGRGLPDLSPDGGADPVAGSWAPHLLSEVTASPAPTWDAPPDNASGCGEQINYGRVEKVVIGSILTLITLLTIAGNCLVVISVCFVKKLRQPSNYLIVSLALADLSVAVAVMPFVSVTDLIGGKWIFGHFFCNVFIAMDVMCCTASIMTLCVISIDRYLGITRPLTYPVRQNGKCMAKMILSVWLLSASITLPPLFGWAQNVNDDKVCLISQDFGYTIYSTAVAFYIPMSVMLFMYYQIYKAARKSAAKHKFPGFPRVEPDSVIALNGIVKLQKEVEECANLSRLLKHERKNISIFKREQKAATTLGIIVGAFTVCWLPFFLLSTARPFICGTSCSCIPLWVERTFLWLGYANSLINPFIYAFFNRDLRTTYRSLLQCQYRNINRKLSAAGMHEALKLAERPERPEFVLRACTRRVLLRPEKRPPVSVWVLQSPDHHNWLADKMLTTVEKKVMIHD

HIV-1 = conditions: cited from earlier work
[2] = system: endogenous β-adrenergic receptor; experiment: cAMP-Glo assay, untransfected HeLa cells stimulated with; format: cell-based, human
untransfected CHO cells = experiment: Intracellular calcium assay, control cells; format: cell-based; conditions: data not shown
h5-HT2B = h5-HT2B (Homo sapiens, UniProt P41595); experiment: Radioligand displacement by a fixed drug concentration, [3H]LSD; conditions: 10 μM efavirenz
Sequence of h5-HT2B (P41595 whole entry): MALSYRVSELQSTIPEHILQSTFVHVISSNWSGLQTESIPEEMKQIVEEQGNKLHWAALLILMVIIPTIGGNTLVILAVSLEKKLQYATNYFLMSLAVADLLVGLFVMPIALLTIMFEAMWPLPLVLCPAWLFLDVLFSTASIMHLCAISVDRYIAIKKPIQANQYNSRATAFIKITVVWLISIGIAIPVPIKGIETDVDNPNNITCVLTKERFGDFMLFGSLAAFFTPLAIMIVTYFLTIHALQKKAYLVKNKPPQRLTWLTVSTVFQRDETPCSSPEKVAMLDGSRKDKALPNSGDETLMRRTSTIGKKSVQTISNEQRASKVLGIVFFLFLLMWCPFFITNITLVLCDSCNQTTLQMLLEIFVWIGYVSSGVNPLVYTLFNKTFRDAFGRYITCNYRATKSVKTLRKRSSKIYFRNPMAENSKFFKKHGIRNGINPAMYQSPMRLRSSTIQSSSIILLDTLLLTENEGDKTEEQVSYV

m5-HT3 (5-HT3A receptor) = m5-HT3 (5-HT3A receptor) (Mus musculus, UniProt P23979); experiment: Radioligand displacement by a fixed drug concentration, [3H]BRL-43694; conditions: 10 μM efavirenz
[3] = cited from earlier work
untransfected HeLa cells = experiment: cAMP-Glo assay, control cells; format: cell-based, human; conditions: efavirenz 30 μM, clozapine 30 μM, 5-HT 1 μM
gp5-HT4 = gp5-HT4 (Cavia porcellus, UniProt O70528); conditions: 10 μM efavirenz
Sequence of gp5-HT4 (O70528 whole entry): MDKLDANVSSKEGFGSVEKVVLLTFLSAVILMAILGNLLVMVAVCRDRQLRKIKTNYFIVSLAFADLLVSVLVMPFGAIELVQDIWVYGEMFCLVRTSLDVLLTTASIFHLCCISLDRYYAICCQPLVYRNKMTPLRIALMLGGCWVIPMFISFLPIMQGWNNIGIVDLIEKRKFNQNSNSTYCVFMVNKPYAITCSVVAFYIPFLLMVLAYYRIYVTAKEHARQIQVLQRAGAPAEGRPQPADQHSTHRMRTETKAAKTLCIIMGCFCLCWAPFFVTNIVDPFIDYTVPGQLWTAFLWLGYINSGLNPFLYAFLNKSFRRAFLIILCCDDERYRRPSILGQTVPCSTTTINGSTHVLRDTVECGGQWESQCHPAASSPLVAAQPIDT

5-HT6 receptor [4] = molecular target: T2, 5-HT6 receptor (Rattus norvegicus, UniProt P31388); experiment: cAMP-Glo assay of Gs signaling, HeLa cells; format: cell-based; conditions: 30 μM
T2 sequence (P31388 whole entry): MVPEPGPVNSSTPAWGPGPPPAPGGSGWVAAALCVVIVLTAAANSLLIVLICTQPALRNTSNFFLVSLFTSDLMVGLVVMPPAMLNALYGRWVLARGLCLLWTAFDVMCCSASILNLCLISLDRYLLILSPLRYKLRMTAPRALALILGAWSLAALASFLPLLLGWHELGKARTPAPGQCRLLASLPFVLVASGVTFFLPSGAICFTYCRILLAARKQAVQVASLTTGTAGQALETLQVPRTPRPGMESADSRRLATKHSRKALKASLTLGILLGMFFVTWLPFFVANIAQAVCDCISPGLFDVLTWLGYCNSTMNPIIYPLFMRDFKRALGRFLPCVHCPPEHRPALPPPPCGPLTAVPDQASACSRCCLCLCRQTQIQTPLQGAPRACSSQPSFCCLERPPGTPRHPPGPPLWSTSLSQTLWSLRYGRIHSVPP

h5-HT2C = molecular target: T3, h5-HT2C (Homo sapiens, UniProt P28335); conditions: 10 μM efavirenz; cited from earlier work
T3 sequence (P28335 33-458): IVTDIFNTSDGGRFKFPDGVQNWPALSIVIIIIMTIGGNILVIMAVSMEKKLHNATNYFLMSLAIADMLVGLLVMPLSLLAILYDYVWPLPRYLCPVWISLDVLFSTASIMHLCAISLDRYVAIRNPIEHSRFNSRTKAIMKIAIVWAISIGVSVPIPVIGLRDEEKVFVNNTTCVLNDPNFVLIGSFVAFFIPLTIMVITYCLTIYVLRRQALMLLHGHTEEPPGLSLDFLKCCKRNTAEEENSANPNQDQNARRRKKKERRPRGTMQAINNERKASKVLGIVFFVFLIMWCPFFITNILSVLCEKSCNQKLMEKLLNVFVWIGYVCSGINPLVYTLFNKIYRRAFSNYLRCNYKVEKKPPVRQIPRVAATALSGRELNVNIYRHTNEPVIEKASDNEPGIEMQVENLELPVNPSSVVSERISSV

NMDA receptors = conditions: 10 μM; cited from earlier work
[5] = cited from earlier work; remark: listed apart in the source
5-HT3A receptors = molecular target: T4, 5-HT3A receptors (Mus musculus, UniProt P23979); experiment: Whole cell electrophysiology, 5-HT-induced currents, HEK293 cells; conditions: for reversibility of inhibition: 2–3 min washout, data not shown
T4 sequence (P23979 24-489): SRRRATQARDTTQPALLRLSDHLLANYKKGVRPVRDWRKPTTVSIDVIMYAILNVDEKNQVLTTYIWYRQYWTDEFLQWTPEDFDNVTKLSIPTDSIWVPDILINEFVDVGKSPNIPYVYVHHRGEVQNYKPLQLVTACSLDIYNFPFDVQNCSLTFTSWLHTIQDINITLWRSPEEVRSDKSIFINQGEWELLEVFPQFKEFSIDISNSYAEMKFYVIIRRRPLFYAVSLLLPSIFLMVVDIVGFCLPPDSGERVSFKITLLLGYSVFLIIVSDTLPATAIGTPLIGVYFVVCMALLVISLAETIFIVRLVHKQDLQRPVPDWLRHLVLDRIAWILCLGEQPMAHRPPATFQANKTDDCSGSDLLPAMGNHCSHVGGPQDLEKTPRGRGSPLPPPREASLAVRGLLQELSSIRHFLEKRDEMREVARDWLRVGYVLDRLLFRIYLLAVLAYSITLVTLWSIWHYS

5-HT6 receptor [6] = molecular target: T2, 5-HT6 receptor; experiment: Competition radioligand binding, concentration-response
M1 muscarinic receptor = M1 muscarinic receptor (Homo sapiens, UniProt P11229)
Sequence of M1 muscarinic receptor (P11229 whole entry): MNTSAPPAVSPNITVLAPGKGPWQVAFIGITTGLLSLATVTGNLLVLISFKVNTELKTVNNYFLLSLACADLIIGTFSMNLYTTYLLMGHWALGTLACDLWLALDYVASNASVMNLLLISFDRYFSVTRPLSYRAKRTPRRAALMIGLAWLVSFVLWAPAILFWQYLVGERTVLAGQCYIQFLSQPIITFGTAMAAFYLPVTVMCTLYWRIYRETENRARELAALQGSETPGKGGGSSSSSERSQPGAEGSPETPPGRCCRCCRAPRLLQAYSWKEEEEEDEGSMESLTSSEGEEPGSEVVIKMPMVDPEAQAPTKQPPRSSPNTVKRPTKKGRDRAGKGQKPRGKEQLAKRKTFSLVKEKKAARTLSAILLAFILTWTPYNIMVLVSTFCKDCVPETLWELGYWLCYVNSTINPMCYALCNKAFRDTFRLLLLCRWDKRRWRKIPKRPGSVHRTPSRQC

5-HT2A receptor [7] = molecular target: T1, 5-HT2A receptor; experiment: Competition radioligand binding, concentration-response
muscarinic receptors = conditions: 10 μM; cited from earlier work
M3 muscarinic receptor = M3 muscarinic receptor (Homo sapiens, UniProt P20309); experiment: Intracellular calcium assay, untransfected HEK293 cells with endogenous receptor; format: cell-based
Sequence of M3 muscarinic receptor (P20309 whole entry): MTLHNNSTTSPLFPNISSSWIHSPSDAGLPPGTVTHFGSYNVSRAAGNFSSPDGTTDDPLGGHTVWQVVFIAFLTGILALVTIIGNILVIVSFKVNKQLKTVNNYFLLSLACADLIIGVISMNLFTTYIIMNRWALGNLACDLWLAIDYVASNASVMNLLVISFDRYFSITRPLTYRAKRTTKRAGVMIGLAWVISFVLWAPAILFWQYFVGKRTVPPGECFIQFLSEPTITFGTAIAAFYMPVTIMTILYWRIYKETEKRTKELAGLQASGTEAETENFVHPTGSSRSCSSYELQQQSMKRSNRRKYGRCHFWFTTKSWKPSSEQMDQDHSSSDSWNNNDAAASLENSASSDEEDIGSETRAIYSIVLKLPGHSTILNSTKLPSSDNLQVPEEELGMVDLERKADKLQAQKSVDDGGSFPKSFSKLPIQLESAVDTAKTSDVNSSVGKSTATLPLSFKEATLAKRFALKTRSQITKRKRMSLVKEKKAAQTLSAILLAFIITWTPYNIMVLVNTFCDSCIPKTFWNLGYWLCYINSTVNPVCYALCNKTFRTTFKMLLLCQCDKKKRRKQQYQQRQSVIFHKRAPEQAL

h5-HT1A = conditions: 10 μM efavirenz; cited from earlier work
[8] = cited from earlier work; remark: listed apart in the source
r5-HT6 = r5-HT6 (Rattus norvegicus, UniProt P31388); experiment: Radioligand displacement by a fixed drug concentration, [3H]LSD; conditions: 10 μM efavirenz
Sequence of r5-HT6 (P31388 whole entry): as the sequence (P31388 whole entry) above

h5-HT5A = h5-HT5A (Homo sapiens, UniProt P47898); experiment: as above; conditions: 10 μM efavirenz
Sequence of h5-HT5A (P47898 whole entry): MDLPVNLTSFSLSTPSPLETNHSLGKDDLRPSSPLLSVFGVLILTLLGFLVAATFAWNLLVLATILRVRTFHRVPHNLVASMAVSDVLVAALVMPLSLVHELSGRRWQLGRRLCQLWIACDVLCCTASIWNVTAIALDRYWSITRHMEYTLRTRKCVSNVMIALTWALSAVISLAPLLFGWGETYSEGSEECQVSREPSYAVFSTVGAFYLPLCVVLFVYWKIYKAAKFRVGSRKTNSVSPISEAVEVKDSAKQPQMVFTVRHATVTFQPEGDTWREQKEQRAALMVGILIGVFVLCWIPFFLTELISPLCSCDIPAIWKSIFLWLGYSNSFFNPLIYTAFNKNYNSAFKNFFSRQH

T1 sequence (P28223 whole entry): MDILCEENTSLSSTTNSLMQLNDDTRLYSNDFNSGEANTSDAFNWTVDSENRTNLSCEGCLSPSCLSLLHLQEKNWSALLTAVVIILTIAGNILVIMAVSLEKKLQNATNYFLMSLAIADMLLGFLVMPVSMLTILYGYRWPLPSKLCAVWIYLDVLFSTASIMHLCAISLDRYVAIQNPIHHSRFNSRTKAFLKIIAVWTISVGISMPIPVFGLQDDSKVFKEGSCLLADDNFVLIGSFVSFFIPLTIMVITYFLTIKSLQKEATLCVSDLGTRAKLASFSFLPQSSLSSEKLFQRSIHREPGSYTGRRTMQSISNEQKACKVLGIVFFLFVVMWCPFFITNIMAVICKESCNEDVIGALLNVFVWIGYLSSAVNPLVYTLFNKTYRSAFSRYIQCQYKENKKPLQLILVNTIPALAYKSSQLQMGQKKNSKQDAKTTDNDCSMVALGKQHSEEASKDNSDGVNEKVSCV
Sequence of MAO-A (P21397 whole entry): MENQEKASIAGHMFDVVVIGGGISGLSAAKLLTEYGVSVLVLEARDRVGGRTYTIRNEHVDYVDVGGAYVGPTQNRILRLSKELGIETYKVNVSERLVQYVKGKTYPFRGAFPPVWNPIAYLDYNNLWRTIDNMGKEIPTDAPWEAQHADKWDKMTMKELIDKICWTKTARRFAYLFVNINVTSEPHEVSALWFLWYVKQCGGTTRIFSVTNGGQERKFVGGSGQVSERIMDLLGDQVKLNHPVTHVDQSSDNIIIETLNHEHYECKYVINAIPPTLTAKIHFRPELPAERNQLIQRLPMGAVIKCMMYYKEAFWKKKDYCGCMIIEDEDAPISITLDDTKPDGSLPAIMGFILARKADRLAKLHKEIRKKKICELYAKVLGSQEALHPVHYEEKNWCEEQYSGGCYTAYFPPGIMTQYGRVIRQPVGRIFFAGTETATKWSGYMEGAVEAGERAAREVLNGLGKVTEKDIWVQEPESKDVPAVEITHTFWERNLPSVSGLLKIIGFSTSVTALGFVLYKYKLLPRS

## O=C1Nc2ccc(Cl)cc2[C@@](C#CC2CC2)(C(F)(F)F)O1 [efavirenz, (4S)-6-chloro-4-(2-cyclopropylethynyl)-4-(trifluoromethyl)-2,4-dihydro-1H-3,1-benzoxazin-2-one]
MAO-A
  decrease of MAO-A activity: 36 ± 1.7%
5-HT2A receptor [1]
  decrease in receptor density (Bmax): 52%
GABAA receptor
  effect on GABA-mediated chloride currents: potentiated GABA-mediated chloride currents
Dopamine receptors
  interaction: did not have significant interactions
h5-HT7
  interaction (radioligand displacement): less pronounced or no detectable interaction
HIV-1
  plasma levels needed to keep HIV-1 suppressed: 1 to 4 µg/mL
  plasma levels resulting in NPAE: greater than 2.74 μg/mL
  plasma levels resulting in virologic failure: < 1 μg/mL
[2]
  effect on (−)-epinephrine stimulated cAMP response: failed to significantly modulate
Untransfected CHO cells
  Gq-mediated response: No Gq-mediated response
h5-HT2B
  displacement of specifically bound radioligand: greater than 50%
m5-HT3 (5-HT3A receptor)
  displacement of [3H]-granisetron binding: did not significantly displace
[3]; large clinical studies, 1008 patients
  incidence of hallucinations: 1.2%
[3]; three clinical studies, 114–197 patients each
  frequency of hallucinations: 6–31%
Untransfected HeLa cells
  change in cAMP levels: no significant changes in cAMP levels
gp5-HT4
  interaction (radioligand displacement): less pronounced or no detectable interaction
5-HT6 receptor [4]
  effect on 5-HT agonist effect: completely overcame the agonist effect of 5-HT but also reduced activity to below basal levels
  effect on basal cAMP: lowers the basal levels of cAMP
h5-HT2C
  displacement of specifically bound radioligand: ≥ 75%
NMDA receptors
  interaction: did not have significant interactions
[5]
  bound to plasma proteins: approximately 99.8%
5-HT3A receptors
  IC50: 4.9 ± 0.7 µM
5-HT3A receptors; 0.6 μM 5-HT (EC30)
  Hill coefficient: 1.2 ± 0.19
5-HT3A receptors; 10 μM, n = 5, data not shown
  effect alone: had no effect
5-HT3A receptors; 30 μM
  inhibition of steady-state currents: complete inhibition
  reversibility of inhibition: partially recovered
5-HT3A receptors; up to 10 μM
  reversibility of inhibition: completely reversible
5-HT6 receptor [6]
  Ki: 2.2 ± 0.27 µM
5-HT6 receptor [6]; competition binding
  pseudo Hill slope: −1.36 ± −0.14
M1 muscarinic receptor
  stimulation of Gq-coupling alone: fails to stimulate
M1 muscarinic receptor; EC50 concentration of carbachol
  concentration suppressing the carbachol Gq response: ≥ 10 µM
5-HT2A receptor [7]; affinity (Ki), [3H]MSP competition
  Ki: 4.4 µM and 4.37 µM
5-HT2A receptor [7]; competition binding
  pseudo Hill slope: −1.39 ± −0.18
Muscarinic receptors
  interaction: did not have high affinity interactions
M3 muscarinic receptor; EC50 concentration of acetylcholine
  concentration partially suppressing ACh mediated activation: ≥ 10 µM
M3 muscarinic receptor; highest concentration that could be tested
  extent of block of ACh response: unable to produce a complete block
M3 muscarinic receptor; untransfected HEK293 cells
  effect alone on intracellular Ca2+ levels: had no effect
h5-HT1A
  interaction (radioligand displacement): less pronounced or no detectable interaction
[8]
  substitution in rats trained to discriminate LSD from saline: partially substituted for LSD
r5-HT6
  displacement of specifically bound radioligand: ≥ 75%
h5-HT5A
  interaction (radioligand displacement): less pronounced or no detectable interaction
